{
  "source": "patent US20260285850A1",
  "about": "“SUBSTITUTED OXAZOLIDINONES AND IMIDAZOLINONES AS HERBICIDES” (FMC CORPORATION, priority 2023, published 2026)",
  "format_in_all_cases": "in vivo",
  "key": {"[1]": {"tested_on": "palmer (palmer amaranth, palmer pigweed, Amaranthus palmeri)", "experiment": "Test A preemergence soil spray, visual injury rating 0-100", "conditions": "10 days, 0 = no effect, 100 = complete control", "procedure,_shortened": "(§1)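 Compounds formulated in a non-phytotoxic solvent with surfactant are sprayed onto soil of freshly planted loam-sand pots ahead of emergence, or onto emerged plants 2-10 cm tall. After a 10-day greenhouse period, each species is scored visually for injury against untreated controls.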"}, "[2]": {"tested_on": "oat, wild (wild oat, Avena fatua)", "experiment": "Test A preemergence soil spray, visual injury rating 0-100", "conditions": "10 days, 0 = no effect, 100 = complete control", "procedure,_shortened": "as §1"}, "kochia (Bassia scoparia) [3]": {"tested_on": "kochia (Bassia scoparia)", "experiment": "Test A preemergence soil spray, visual injury rating 0-100", "conditions": "10 days, 0 = no effect, 100 = complete control", "procedure,_shortened": "as §1"}, "[4]": {"tested_on": "barnyardgrass (Echinochloa crus-galli)", "experiment": "Test A preemergence soil spray, visual injury rating 0-100", "conditions": "10 days, 0 = no effect, 100 = complete control", "procedure,_shortened": "as §1"}, "corn (Zea mays) [5]": {"tested_on": "corn (Zea mays)", "experiment": "Test A preemergence soil spray, visual injury rating 0-100", "conditions": "10 days, 0 = no effect, 100 = complete control", "procedure,_shortened": "as §1"}, "soybean (Glycine max) [6]": {"tested_on": "soybean (Glycine max)", "experiment": "Test A preemergence soil spray, visual injury rating 0-100", "conditions": "10 days, 0 = no effect, 100 = complete control", "procedure,_shortened": "as §1"}, "[7]": {"tested_on": "blackgrass (Alopecurus myosuroides)", "experiment": "Test A preemergence soil spray, visual injury rating 0-100", "conditions": "10 days, 0 = no effect, 100 = complete control", "procedure,_shortened": "as §1"}, "[8]": {"tested_on": "ragweed (common ragweed, Ambrosia artemisiifolia)", "experiment": "Test A preemergence soil spray, visual injury rating 0-100", "conditions": "10 days, 0 = no effect, 100 = complete control", "procedure,_shortened": "as §1"}, "[9]": {"tested_on": "wheat (Triticum aestivum)", "experiment": "Test A preemergence soil spray, visual injury rating 0-100", "conditions": "10 days, 0 = no effect, 100 = complete control", "procedure,_shortened": "as §1"}, "[10]": {"tested_on": "green foxtail (Setaria viridis)", "experiment": "Test A preemergence soil spray, visual injury rating 0-100", "conditions": "10 days, 0 = no effect, 100 = complete control", "procedure,_shortened": "as §1"}, "[11]": {"tested_on": "barnyardgrass (Echinochloa crusgalli)", "experiment": "Test B flooded paddy test, visual plant response rating 0-100", "conditions": "250 g ai/ha, Flood, applied to paddy water, evaluated after 13 days", "procedure,_shortened": "(§2)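 Treatment occurs at the 2-leaf stage by adding compound to floodwater standing 3 cm above the soil, a level kept for the whole test. Plants stay in the greenhouse 13 days before visual comparison with controls.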"}, "[12]": {"tested_on": "sedge, umbrella (small-flower umbrella sedge, Cyperus difformis)", "experiment": "Test B flooded paddy test, visual plant response rating 0-100", "conditions": "250 g ai/ha, Flood, applied to paddy water, evaluated after 13 days", "procedure,_shortened": "as §2"}, "[13]": {"tested_on": "ducksalad (Heteranthera limosa)", "experiment": "Test B flooded paddy test, visual plant response rating 0-100", "conditions": "250 g ai/ha, Flood, applied to paddy water, evaluated after 13 days", "procedure,_shortened": "as §2"}, "rice (Oryza sativa)": {"tested_on": "rice (Oryza sativa)", "experiment": "Test B flooded paddy test, visual plant response rating 0-100", "conditions": "250 g ai/ha, Flood, applied to paddy water, evaluated after 13 days", "procedure,_shortened": "as §2"}, "[14]": {"tested_on": "ryegrass, Italian (italian ryegrass, Lolium multiflorum)", "experiment": "Test A postemergence application, visual injury rating 0-100", "conditions": "10 days", "procedure,_shortened": "as §1"}, "[15]": {"tested_on": "palmer (palmer amaranth, palmer pigweed, Amaranthus palmeri)", "experiment": "Test A postemergence application, visual injury rating 0-100", "conditions": "10 days", "procedure,_shortened": "as §1"}, "[16]": {"tested_on": "oat, wild (wild oat, Avena fatua)", "experiment": "Test A postemergence application, visual injury rating 0-100", "conditions": "10 days", "procedure,_shortened": "as §1"}, "kochia (Bassia scoparia) [17]": {"tested_on": "kochia (Bassia scoparia)", "experiment": "Test A postemergence application, visual injury rating 0-100", "conditions": "10 days", "procedure,_shortened": "as §1"}, "[18]": {"tested_on": "barnyardgrass (Echinochloa crus-galli)", "experiment": "Test A postemergence application, visual injury rating 0-100", "conditions": "10 days", "procedure,_shortened": "as §1"}, "corn (Zea mays) [19]": {"tested_on": "corn (Zea mays)", "experiment": "Test A postemergence application, visual injury rating 0-100", "conditions": "10 days", "procedure,_shortened": "as §1"}, "soybean (Glycine max) [20]": {"tested_on": "soybean (Glycine max)", "experiment": "Test A postemergence application, visual injury rating 0-100", "conditions": "10 days", "procedure,_shortened": "as §1"}, "[21]": {"tested_on": "galium (catchweed bedstraw, Galium aparine)", "experiment": "Test A postemergence application, visual injury rating 0-100", "conditions": "10 days", "procedure,_shortened": "as §1"}, "[22]": {"tested_on": "blackgrass (Alopecurus myosuroides)", "experiment": "Test A postemergence application, visual injury rating 0-100", "conditions": "10 days", "procedure,_shortened": "as §1"}, "[23]": {"tested_on": "ragweed (common ragweed, Ambrosia artemisiifolia)", "experiment": "Test A postemergence application, visual injury rating 0-100", "conditions": "10 days", "procedure,_shortened": "as §1"}, "[24]": {"tested_on": "wheat (Triticum aestivum)", "experiment": "Test A postemergence application, visual injury rating 0-100", "conditions": "10 days", "procedure,_shortened": "as §1"}, "[25]": {"tested_on": "green foxtail (Setaria viridis)", "experiment": "Test A postemergence application, visual injury rating 0-100", "conditions": "10 days", "procedure,_shortened": "as §1"}, "[26]": {"tested_on": "horseweed (Erigeron canadensis)", "experiment": "Test A postemergence application, visual injury rating 0-100", "conditions": "10 days", "procedure,_shortened": "as §1"}, "[27]": {"conditions": "31 g ai/ha, postemergence, 0 = no effect, 100 = complete control"}, "[28]": {"conditions": "Postemergence, 125 g ai/ha, 0 is no effect, 100 is complete control"}},
  "data": [
    {"smiles": "CC(C)OC(=O)C1=CCC(NC(=O)C2(C)CN(c3cc(F)cc(F)c3)C(=O)O2)C1", "note": "(centres unmarked) [Compound 5]", "values": [
      {"measurement": "Amaranth, Palmer plant response rating (0-100)", "setting": "[1]; 31 g ai/ha", "value": 20},
      {"measurement": "Amaranth, Palmer plant response rating (0 to 100 scale)", "setting": "[1]; 125 g ai/ha", "value": 100},
      {"measurement": "Oat, Wild plant response rating (0-100)", "setting": "[2]; 31 g ai/ha", "value": 20},
      {"measurement": "Oat, Wild plant response rating (0 to 100 scale)", "setting": "[2]; 125 g ai/ha", "value": 90},
      {"measurement": "Kochia plant response rating (0-100)", "setting": "kochia (Bassia scoparia) [3]; 31 g ai/ha", "value": 0},
      {"measurement": "Kochia plant response rating (0 to 100 scale)", "setting": "kochia (Bassia scoparia) [3]; 125 g ai/ha", "value": 90},
      {"measurement": "Barnyardgrass plant response rating (0-100)", "setting": "[4]; 31 g ai/ha", "value": 0},
      {"measurement": "Barnyardgrass plant response rating (0 to 100 scale)", "setting": "[4]; 125 g ai/ha", "value": 100},
      {"measurement": "Corn plant response rating (0-100)", "setting": "corn (Zea mays) [5]; 31 g ai/ha", "value": 0},
      {"measurement": "Corn plant response rating (0 to 100 scale)", "setting": "corn (Zea mays) [5]; 125 g ai/ha", "value": 50},
      {"measurement": "Soybean plant response rating (0-100)", "setting": "soybean (Glycine max) [6]; 31 g ai/ha", "value": 0},
      {"measurement": "Soybean plant response rating (0 to 100 scale)", "setting": "soybean (Glycine max) [6]; 125 g ai/ha", "value": 60},
      {"measurement": "Blackgrass plant response rating (0-100)", "setting": "[7]; 31 g ai/ha", "value": 30},
      {"measurement": "Blackgrass plant response rating (0 to 100 scale)", "setting": "[7]; 125 g ai/ha", "value": 40},
      {"measurement": "Ragweed plant response rating (0-100)", "setting": "[8]; 31 g ai/ha", "value": 0},
      {"measurement": "Ragweed plant response rating (0 to 100 scale)", "setting": "[8]; 125 g ai/ha", "value": 0},
      {"measurement": "Wheat plant response rating (0-100)", "setting": "[9]; 31 g ai/ha", "value": 0},
      {"measurement": "Wheat plant response rating (0 to 100 scale)", "setting": "[9]; 125 g ai/ha", "value": 80},
      {"measurement": "Foxtail, Green plant response rating (0-100)", "setting": "[10]; 31 g ai/ha", "value": 20},
      {"measurement": "Foxtail, Green plant response rating (0 to 100 scale)", "setting": "[10]; 125 g ai/ha", "value": 100},
      {"measurement": "Plant response rating, Barnyardgrass (0 to 100 scale, 0 is no effect and 100 is complete control)", "setting": "[11]", "value": 65},
      {"measurement": "Plant response rating, Sedge, Umbrella (0 to 100 scale, 0 is no effect and 100 is complete control)", "setting": "[12]", "value": 95},
      {"measurement": "Plant response rating, Ducksalad (0 to 100 scale, 0 is no effect and 100 is complete control)", "setting": "[13]", "value": 80},
      {"measurement": "Plant response rating, Rice (0 to 100 scale, 0 is no effect and 100 is complete control)", "setting": "rice (Oryza sativa)", "value": 20},
      {"measurement": "Ryegrass, Italian plant response rating (0-100)", "setting": "[14]; [27]", "value": 60},
      {"measurement": "Ryegrass, Italian plant response rating (0 to 100 scale)", "setting": "[14]; [28]", "value": 90},
      {"measurement": "Amaranth, Palmer plant response rating (0-100)", "setting": "[15]; [27]", "value": 40},
      {"measurement": "Amaranth, Palmer / Pigweed, Palmer plant response rating (0 to 100 scale)", "setting": "[15]; [28]", "value": 50},
      {"measurement": "Oat, Wild plant response rating (0-100)", "setting": "[16]; [27]", "value": 90},
      {"measurement": "Oat, Wild plant response rating (0 to 100 scale)", "setting": "[16]; [28]", "value": 90},
      {"measurement": "Kochia plant response rating (0-100)", "setting": "kochia (Bassia scoparia) [17]; [27]", "value": 30},
      {"measurement": "Kochia plant response rating (0 to 100 scale)", "setting": "kochia (Bassia scoparia) [17]; [28]", "value": 80},
      {"measurement": "Barnyardgrass plant response rating (0-100)", "setting": "[18]; [27]", "value": 100},
      {"measurement": "Barnyardgrass plant response rating (0 to 100 scale)", "setting": "[18]; [28]", "value": 100},
      {"measurement": "Corn plant response rating (0-100)", "setting": "corn (Zea mays) [19]; [27]", "value": 60},
      {"measurement": "Corn plant response rating (0 to 100 scale)", "setting": "corn (Zea mays) [19]; [28]", "value": 100},
      {"measurement": "Soybean plant response rating (0-100)", "setting": "soybean (Glycine max) [20]; [27]", "value": 60},
      {"measurement": "Soybean plant response rating (0 to 100 scale)", "setting": "soybean (Glycine max) [20]; [28]", "value": 70},
      {"measurement": "Galium plant response rating (0-100)", "setting": "[21]; [27]", "value": 80},
      {"measurement": "Galium plant response rating (0 to 100 scale)", "setting": "[21]; [28]", "value": 80},
      {"measurement": "Blackgrass plant response rating (0-100)", "setting": "[22]; [27]", "value": 50},
      {"measurement": "Blackgrass plant response rating (0 to 100 scale)", "setting": "[22]; [28]", "value": 90},
      {"measurement": "Ragweed plant response rating (0-100)", "setting": "[23]; [27]", "value": 50},
      {"measurement": "Ragweed plant response rating (0 to 100 scale)", "setting": "[23]; [28]", "value": 70},
      {"measurement": "Wheat plant response rating (0-100)", "setting": "[24]; [27]", "value": 90},
      {"measurement": "Wheat plant response rating (0 to 100 scale)", "setting": "[24]; [28]", "value": 90},
      {"measurement": "Foxtail, Green plant response rating (0-100)", "setting": "[25]; [27]", "value": 30},
      {"measurement": "Foxtail, Green plant response rating (0 to 100 scale)", "setting": "[25]; [28]", "value": 90},
      {"measurement": "Horseweed plant response rating (0-100)", "setting": "[26]; [27]", "value": 10},
      {"measurement": "Horseweed plant response rating (0 to 100 scale)", "setting": "[26]; [28]", "value": 50}
    ]}
  ]
}
